Laboratory results reported in article PMC5620277, “The histone methyltransferase EZH2 as a druggable target in SHH medulloblastoma cancer stem cells” (Oncotarget, 2017).
Read-outs that look alike come from different tables or passages of the source.

What was measured:
EZH2/PRC2 = target: T1, EZH2/PRC2 (Homo sapiens, UniProt Q15910); assay: EZH2/PRC2 cell free enzymatic assay (3H-SAM, filter-paper detection); format: biochemical
T1 construct: (amino acids 2-end) with N-terminal His tag; His tag (N); host or cells: baculovirus expression system
Description: (§1) MC3629 was tested in the cell free enzymatic assay (EZH2/PRC2) in 10-dose IC50 mode with 2-fold serial dilution starting from 400 μM solution, using various histone substrates (histone H3/H4 octamer, histone H3/H4 tetramer, histone H3, and core histone) and SAM as the co-substrate. […] (Figure 2B, and Supplementary Figure 2).
Reagents: Reaction buffer; 50 mM Tris-HCl (pH 8.0), 50 mM NaCl, 1 mM EDTA, 1 mM DTT, 1 mM PMSF, 1% DMSO. Reaction Conditions: EZH2: Complex of human EZH2 (GenBank Accession No. NM_004456), (amino acids 2-end) with N-terminal His tag, MW= 86 kDa, human EED (NM_003797) (a-a 2-end) with N-terminal Flag tag, MW= 51 kDa, human SUZ12 (NM_015355) (a-a 2-end) with N-terminal His tag, MW = 87 kDa, Human AEBP2 (NM_153207) (a-a 2-end) with N-terminal His tag, MW= 53 kDa, and human RbAp48 (NM_005610) (a-a 2-end) with N-terminal His tag, MW = 48 kDa, co-expressed in baculovirus expression system. Substrate: 5 μM histone H3/H4 tetramer. Methyl donor: 1 μM S-adenosyl-L-[methyl-^3H]methionine (^3H-SAM). Enzyme: 100 nM EZH2 complex. Reaction Procedure: the indicated substrate was dissolved in freshly prepared Reaction Buffer; EZH2 was delivered into the substrate solution and mixed gently. The compound was dissolved in DMSO to a stock of 20 mM and was tested in a 10-dose IC50 mode with 2-fold serial dilution starting at 400 μM. The compound was delivered in DMSO into the EZH2 reaction mixture by using Acoustic Technology (Echo 550, LabCyte Inc. Sunnyvale, CA) in nanoliter range, and incubated for 15 min; ^3H-SAM was delivered into the reaction mixture to initiate the reaction; the reaction mixture was incubated for 1 h at 30°C and then delivered to filter-paper for detection; data were analyzed using Excel and GraphPad Prism 5 software for IC50 curve fits. For SAM competition experiments, the same procedure was used with different SAM concentration (1, 2.5. 5, and 10 μM) and H3/H4 octamer as the substrate.

EZH1 complex = EZH1 complex (Homo sapiens, UniProt Q92800); assay: Methyltransferase panel: EZH1 complex; format: biochemical
Description: as §1
(§2) The appropriate methyltransferase (MT) substrate (0.05 mg/ml core histone for EZH1 complex, 0.05 mg/ml oligonucleosomes for DOT1L, 5 μM histone H3 (1-21) peptide for G9a, 0.05 mg/ml nucleosomes for MLL1 complex, 0.05 mg/ml core histone for SET7/9, 5 μM histone H4 for PRMT1, and 0.001 mg/ml poly(dI-dC) for DNMT1) was added in freshly prepared Reaction Buffer (50 mM Tris-HCl (pH 8.5), 5 mM MgCl2, 50 mM NaCl, 0.01% Brij35, 1 mM DTT, 1% DMSO). The MT enzyme was delivered into the substrate solution and the mixture was mixed gently. Afterwards, the tested compound dissolved in DMSO was delivered into the enzyme/substrate reaction mixture by using Acoustic Technology (Echo 550, LabCyte Inc. Sunnyvale, CA) in nanoliter range, and 1 μM ^3H-SAM was also added into the reaction mixture to initiate the reaction. The reaction mixture was incubated for 1 h at 30°C and then it was delivered to filter-paper for detection. The data were analyzed using Excel and GraphPad Prism software for IC50 curve fits (for EZH1 complex).

MLL1 complex = MLL1 complex (Homo sapiens, UniProt Q03164); assay: Methyltransferase panel: MLL1 complex; format: biochemical; settings: substrate nucleosomes
Description: as §1, §2

SET7/9 = target: T2, SET7/9 (Homo sapiens, UniProt Q8WTS6); assay: Methyltransferase panel: SET7/9; format: biochemical; settings: substrate histone H3/H4 octamer
T2 sequence (Q8WTS6 1-366): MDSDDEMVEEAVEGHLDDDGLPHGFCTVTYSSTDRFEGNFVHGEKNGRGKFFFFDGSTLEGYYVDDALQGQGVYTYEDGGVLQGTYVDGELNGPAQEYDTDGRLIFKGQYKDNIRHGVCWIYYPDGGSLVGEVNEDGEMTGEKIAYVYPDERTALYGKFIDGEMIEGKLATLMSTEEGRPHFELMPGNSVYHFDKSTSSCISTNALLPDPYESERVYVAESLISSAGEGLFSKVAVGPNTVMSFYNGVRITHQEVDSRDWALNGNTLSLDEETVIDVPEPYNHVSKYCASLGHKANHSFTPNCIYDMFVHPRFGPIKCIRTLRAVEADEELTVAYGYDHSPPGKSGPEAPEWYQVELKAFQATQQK
Description: as §1, §2

PRMT1 = PRMT1 (Homo sapiens, UniProt Q99873); assay: Methyltransferase panel: PRMT1; format: biochemical; settings: substrate histone H4
Description: as §1, §2

DAOY cells [1] = assay: Western Blot of H3K27me3 and PCNA in DAOY cells; format: cell-based; settings: 5 μM, 48 h
Description: (§3) To evaluate cell viability cells were plated at a density of 5×10^3 cells/well in 96-well plates and were incubated with MTS solution (CellTiter 96® AQueous One Solution Promega).
(§4) Western blots were performed according to standard procedures. Briefly, protein lysates were prepared using RIPA buffer with fresh protease inhibitors. Lysates were separated on SDS polyacrylamide gels. Proteins were transferred on nitrocellulose membrane (0.45 micron) (PerkinElmer). Membranes were blocked for 1 h at room temperature in 5% nonfat dry milk and incubated overnight at 4°C with antibodies against EZH2 (4905S Cell signaling), H3K27me3 (07-449 Millipore), PCNA (2586 Cell signaling), ACTIN (I-19 sc-1616; Santa Cruz Biotechnology), GAPDH (ab9484, Abcam), cleaved CSP-3 (D-175 9661S; Cell Signaling) and H3 (ab1971, Abcam). HRP-conjugated secondary antibodies (Santa Cruz Biotechnology) were used in combination with enhanced chemiluminescence (ECL Amersham).

DAOY cells [2] = assay: Cell viability, MTS assay, DAOY cells; format: cell-based; settings: 5 μM, after 48 h
Description: as §3

DAOY-SLCs [3] = assay: Cell viability, MTS assay, DAOY-SLCs; format: cell-based; settings: 5 μM, after 48 h
Description: as §3

DAOY-SLCs [4] = assay: Cell death (Trypan blue test) in DAOY-SLCs; format: cell-based; settings: 5 μM, 72 h
Description: Trypan blue exclusion test was used to count viable or death cells present in a cell suspension. Each sample was measured in triplicate and repeated at least three times.

neural stem cells (NSC) = assay: Western Blot of H3K27me3 and PCNA in neural stem cells (non-transformed cells); format: cell-based; settings: 5 μM, 48 h
Description: as §4

**Q.** For `Cc1cc(C)c(CNC(=O)c2cnn(-c3ccccc3)c2C)c(=O)[nH]1` [MC3629, N-((4,6-dimethyl-2-oxo-1,2-dihydropyridin-3-yl)methyl)-5-methyl-1-phenyl-1H-pyrazole-4-carboxamide], which “mechanism of inhibition, SAM competition experiments” value (EZH2/PRC2; histone H3/H4 octamer substrate, SAM 1, 2.5, 5, 10 μM) is on record?
**A.** SAM-dependent mechanism of inhibition

**Q.** And the IC50 (EZH2/PRC2; histone H3/H4 tetramer substrate, value printed in Figure 2B, read-out: IC50, EZH2/PRC2)?
**A.** 5.27 µM

**Q.** And the IC50 (EZH2/PRC2; range over histone substrates (histone H3/H4 octamer, H3/H4 tetramer, histone H3, core histone), SAM co-substrate, 10-dose, 2-fold dilution from 400 μM, read-out: IC50 values, EZH2/PRC2)?
**A.** 5.27 to 15.4 µM

**Q.** What about the inhibition at 200 µM (EZH1 complex; 200 μM, substrate histone H3/H4 octamer) of the same compound?
**A.** 62.4%

**Q.** And the IC50 (EZH1 complex; footnote of Supplementary Table 1)?
**A.** 138 µM

**Q.** And the inhibition at 200 µM (MLL1 complex)?
**A.** 20.7%

**Q.** What about the inhibition at 200 µM (SET7/9) of the same compound?
**A.** 5.2%

**Q.** What about the inhibition at 200 µM (PRMT1) of the same compound?
**A.** 5.7%

**Q.** What about the “H3K27me3 and PCNA levels” value (DAOY cells [1]) of the same compound?
**A.** impaired

**Q.** And the cell viability (DAOY cells [2])?
**A.** impaired cell viability

**Q.** What about the cell viability (DAOY-SLCs [3]) of the same compound?
**A.** impaired cell viability

**Q.** What about the cell death (DAOY-SLCs [4]) of the same compound?
**A.** induced cell death

**Q.** What about the “H3K27me3 and PCNA protein levels” value (neural stem cells (NSC)) of the same compound?
**A.** did not observe any effects
